We go through 30 compounds from patent US20100076015A1, “Aminopyridine Derivatives” (VANTIA LIMITED, priority 2008, published 2010).

The test deals with T1, Human KLK1 (Homo sapiens, UniProt P06870).
T1 construct: purchased Callbiochem (Calbiochem)
T1 sequence (P06870 25-262): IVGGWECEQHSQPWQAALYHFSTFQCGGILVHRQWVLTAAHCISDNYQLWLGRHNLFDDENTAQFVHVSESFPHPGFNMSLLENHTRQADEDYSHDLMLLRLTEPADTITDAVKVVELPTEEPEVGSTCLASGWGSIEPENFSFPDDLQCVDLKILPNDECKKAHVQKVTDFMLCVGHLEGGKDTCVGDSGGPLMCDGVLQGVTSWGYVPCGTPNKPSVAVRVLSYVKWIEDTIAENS
The test is described as follows: Determination of the IC50 for KLK1 (fluorogenic substrate H-DVal-Leu-Arg-AFC). The test is classed as biochemical. The settings on record: 37° C. Summed up: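 IC50 values reflect residual human KLK1 activity, read as initial rate from optical absorbance change at 410 nm. Incubations ran at 37° C with H-DVal-Leu-Arg-AFC as substrate across a compound concentration series.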
In turn, `Cc1c[nH]c(C(=O)N[C@@H](Cc2ccc(F)cc2)C(=O)NCc2ccc(N)nc2)c1` [Example 260, 4-Methyl-1H-pyrrole-2-carboxylic acid [(S)-1-[(6-amino-pyridin-3-ylmethyl)-carbamoyl]-2-(4-fluoro-phenyl)-ethyl]-amide] yielded a half-inhibitory concentration (IC50) of 150 nM.

As to `CCN(C)[C@@H](CO)C(=O)N[C@@H](CC1CCCCC1)C(=O)NCc1ccc(N)nc1` [Example 387, (S)—N-{(S)-1-[(6-Amino-pyridin-3-ylmethyl)-carbamoyl]-2-cyclohexyl-ethyl}-2-(ethyl-methyl-amino)-3-hydroxy-propionamide], the IC50 is 170 nM.

For the compound `CC(C)N1CCCC[C@@H]1C(=O)N[C@@H](Cc1ccc(F)cc1)C(=O)NCc1ccc(N)nc1` [Example 147, (R)-1-Isopropyl-piperidine-2-carboxylic acid [(S)-1-[(6-amino-pyridin-3-ylmethyl)-carbamoyl]-2-(4-fluoro-phenyl)-ethyl]-amide], the IC50 was determined as 49.6 nM.

For the compound `Cc1cc[nH]c1C(=O)N[C@@H](CC1CCCCC1)C(=O)NCc1ccc(N)nc1` [Example 273, 3-Methyl-1H-pyrrole-2-carboxylic acid {(S)-1-[(6-amino-pyridin-3-ylmethyl)-carbamoyl]-2-cyclohexyl-ethyl}-amide], it took 375 nM to reach half-maximal inhibition (IC50).

`CN(C)[C@H](Cc1ccccc1)C(=O)N[C@@H](Cc1ccc(F)c(F)c1)C(=O)NCc1ccc(N)nc1` [Example 185, (R)—N-[(S)-1-[(6-Amino-pyridin-3-ylmethyl)-carbamoyl]-2-(3,4-difluoro-phenyl)-ethyl]-2-dimethylamino-3-phenyl-propionamide] returned an IC50 of 14.5 nM.

Take `CCC(C)[C@@H](N)C(=O)N[C@@H](Cc1ccccc1Cl)C(=O)NCc1ccc(N)nc1` (stereo partly drawn) [Example 24, (R)-2-Amino-3-methyl-pentanoic acid [(S)-1-[(6-amino-pyridin-3-ylmethyl)-carbamoyl]-2-(2-chloro-phenyl)-ethyl]-amide]: the IC50 is 27.8 nM.

As for `Nc1ccc(CNC(=O)[C@H](Cc2ccc(F)c(F)c2)NC(=O)CN2CCOCC2)cn1` [Example 171, (S)—N-(6-Amino-pyridin-3-ylmethyl)-3-(3,4-difluoro-phenyl)-2-(2-morpholin-4-yl-acetylamino)-propionamide], half-maximal inhibition (IC50) required 1.3 nM.

The compound `CCC(C)[C@@H](C(=O)N[C@@H](Cc1ccc(F)c(F)c1)C(=O)NCc1ccc(N)nc1)N(C)C(C)C` (stereo partly drawn) [Example 353, (S)-2-(Isopropyl-methyl-amino)-3-methyl-pentanoic acid [(S)-1-[(6-amino-pyridin-3-ylmethyl)-carbamoyl]-2-(3,4-difluoro-phenyl)-ethyl]-amide] returned an IC50 of 7.8 nM.

With `Cc1cc[nH]c1C(=O)N[C@@H](Cc1ccc(F)cc1)C(=O)NCc1ccc(N)nc1` [Example 261, 3-Methyl-1H-pyrrole-2-carboxylic acid [(S)-1-[(6-amino-pyridin-3-ylmethyl)-carbamoyl]-2-(4-fluoro-phenyl)-ethyl]-amide], the half-inhibitory concentration (IC50) is 13.2 nM.

Regarding `Cc1nc(N)ccc1CNC(=O)[C@H](Cc1cccc2ccccc12)NC(=O)c1cc2cc(F)ccc2[nH]1` [Example 305, 5-Fluoro-1H-indole-2-carboxylic acid {(S)-1-[(6-amino-2-methyl-pyridin-3-ylmethyl)-carbamoyl]-2-naphthalen-1-yl-ethyl}-amide], it took 119 nM to reach half-maximal inhibition (IC50).

`Cc1cccc(C[C@H](NC(=O)[C@H](C)N(C)C(C)C)C(=O)NCc2ccc(N)nc2)c1` [Example 414, (S)—N-{(S)-1-[(6-Amino-pyridin-3-ylmethyl)-carbamoyl]-2-m-tolyl-ethyl}-2-(isopropyl-methyl-amino)-propionamide] had a concentration for half-maximal inhibition (IC50) of 0.77 nM.

Consider `C[C@@H](C(=O)N[C@@H](Cc1ccc(F)c(F)c1)C(=O)NCc1ccc(N)nc1)N1CCCC1` [Example 357, (S)—N-[(S)-1-[(6-Amino-pyridin-3-ylmethyl)-carbamoyl]-2-(3,4-difluoro-phenyl)-ethyl]-2-pyrrolidin-1-yl-propionamide], for which the IC50 worked out at 3 nM.

In turn, `Cc1cc(C)c(C(=O)N[C@@H](Cc2ccccc2C(F)(F)F)C(=O)NCc2ccc(N)nc2)[nH]1` [Example 240, 3,5-Dimethyl-1H-pyrrole-2-carboxylic acid [(S)-1-[(6-amino-pyridin-3-ylmethyl)-carbamoyl]-2-(2-trifluoromethyl-phenyl)-ethyl]-amide] returned an IC50 of 1.5 nM.

`Cc1cc(C)c(C(=O)N[C@@H](Cc2ccccc2C)C(=O)NCc2ccc(N)nc2)[nH]1` [Example 244, 3,5-Dimethyl-1H-pyrrole-2-carboxylic acid {(S)-1-[(6-amino-pyridin-3-ylmethyl)-carbamoyl]-2-o-tolyl-ethyl}-amide]: the half-maximal inhibitory concentration (IC50) was determined as 7.8 nM.

`CN1CCC[C@@H]1C(=O)N[C@@H](Cc1ccc(Cl)cc1Cl)C(=O)NCc1ccc(N)nc1` [Example 110, (R)-1-Methyl-pyrrolidine-2-carboxylic acid [(S)-1-[(6-amino-pyridin-3-ylmethyl)-carbamoyl]-2-(2,4-dichloro-phenyl)-ethyl]-amide] returned an IC50 of 4 nM.

`CN[C@@H](Cc1ccccc1)C(=O)N[C@H](Cc1ccc(Cl)c(Cl)c1)C(=O)NCc1ccc(N)nc1C` [Example 193, (S)—N-[(R)-1-[(6-Amino-2-methyl-pyridin-3-ylmethyl)-carbamoyl]-2-(3,4-dichloro-phenyl)-ethyl]-2-methylamino-3-phenyl-propionamide] returned a half-inhibitory concentration (IC50) of 10.9 nM.

For the compound `CCN(C)[C@@H](Cc1ccccc1)C(=O)N[C@@H](Cc1ccc(F)c(F)c1)C(=O)NCc1ccc(N)nc1` [Example 352, (S)—N-[(S)-1-[(6-Amino-pyridin-3-ylmethyl)-carbamoyl]-2-(3,4-difluoro-phenyl)-ethyl]-2-(ethyl-methyl-amino)-3-phenyl-propionamide], 13.7 nM corresponded to half-maximal inhibition (IC50).

With `Nc1ccc(CNC(=O)[C@H](Cc2ccc(F)c(F)c2)NC(=O)CN2CCCc3ccccc32)cn1` [Example 173, (S)—N-(6-Amino-pyridin-3-ylmethyl)-3-(3,4-difluoro-phenyl)-2-(2-3,4-dihydro-2H-quinolin-1-yl-acetylamino)-propionamide], inhibition was half-maximal at 78.3 nM (IC50).

`COc1ccc2[nH]c(C(=O)N[C@@H](Cc3cccc(F)c3)C(=O)NCc3ccc(N)nc3)cc2c1` [Example 312, 5-Methoxy-1H-indole-2-carboxylic acid [(S)-1-[(6-amino-pyridin-3-ylmethyl)-carbamoyl]-2-(3-fluoro-phenyl)-ethyl]-amide]: the midpoint of inhibition, the IC50, lay at 38.4 nM.

`CC(C)N(C)[C@@H](C)C(=O)N[C@@H](CC1CCCC2CCCCC21)C(=O)NCc1ccc(N)nc1` (stereo partly drawn) [Example 395, (S)—N-[(S)-1-[(6-Amino-pyridin-3-ylmethyl)-carbamoyl]-2-(decahydro-naphthalen-1-yl)-ethyl]-2-(isopropyl-methyl-amino)-propionamide]: the IC50 was 0.17 nM.

Regarding `COc1ccc2[nH]c(C(=O)N[C@@H](Cc3cccc(Cl)c3)C(=O)NCc3ccc(N)nc3C)cc2c1` [Example 316, 5-Methoxy-1H-indole-2-carboxylic acid [(S)-1-[(6-amino-2-methyl-pyridin-3-ylmethyl)-carbamoyl]-2-(3-chloro-phenyl)-ethyl]-amide], it took 76.7 nM to reach half-maximal inhibition (IC50).

`Nc1ccc(CNC(=O)[C@H](Cc2ccc(Cl)c(Cl)c2)NC(=O)CN2CCCCC2)cn1` [Example 404, (S)—N-(6-Amino-pyridin-3-ylmethyl)-3-(3,4-dichloro-phenyl)-2-(2-piperidin-1-yl-acetylamino)-propionamide] returned an IC50 of 33.4 nM.

`Cc1nc(N)ccc1CNC(=O)[C@H](Cc1ccc(Cl)c(Cl)c1)NC(=O)[C@H](N)Cc1ccc(Cl)cc1` [Example 195, (R)-2-Amino-N-[(S)-1-[(6-amino-2-methyl-pyridin-3-ylmethyl)-carbamoyl]-2-(3,4-dichloro-phenyl)-ethyl]-3-(4-chloro-phenyl)-propionamide] returned an IC50 of 5.4 nM.

`CC(C)N1CCC[C@@H]1C(=O)N[C@@H](Cc1cccc(Cl)c1)C(=O)NCc1ccc(N)nc1` [Example 120, (R)-1-Isopropyl-pyrrolidine-2-carboxylic acid [(S)-1-[(6-amino-pyridin-3-ylmethyl)-carbamoyl]-2-(3-chloro-phenyl)-ethyl]-amide] displayed an IC50 of 1.6 nM.

On to `Nc1ccc(CNC(=O)[C@H](Cc2cccc(Cl)c2)NC(=O)[C@H]2CCCCN2)cn1` [Example 77, (R)-Piperidine-2-carboxylic acid [(S)-1-[(6-amino-pyridin-3-ylmethyl)-carbamoyl]-2-(3-chloro-phenyl)-ethyl]-amide], for which inhibition was half-maximal at 2.9 nM (IC50).

`CC(C)N[C@H](Cc1ccccc1)C(=O)N[C@@H](Cc1ccc(F)c(F)c1)C(=O)NCc1ccc(N)nc1` [Example 184, (R)—N-[(S)-1-[(6-Amino-pyridin-3-ylmethyl)-carbamoyl]-2-(3,4-difluoro-phenyl)-ethyl]-2-isopropylamino-3-phenyl-propionamide] displayed a half-maximal inhibitory concentration (IC50) of 44.4 nM.

The compound `CCN(CC)[C@@H](CO)C(=O)N[C@@H](Cc1ccc(F)c(F)c1)C(=O)NCc1ccc(N)nc1` [Example 362, (S)—N-[(S)-1-[(6-Amino-pyridin-3-ylmethyl)-carbamoyl]-2-(3,4-difluoro-phenyl)-ethyl]-2-diethylamino-3-hydroxy-propionamide] displayed an IC50 of 25.9 nM.

Consider `CCC(C)[C@@H](NC)C(=O)N[C@@H](Cc1cc(F)cc(F)c1)C(=O)NCc1ccc(N)nc1` (stereo partly drawn) [Example 49, (R)-3-Methyl-2-methylamino-pentanoic acid [(S)-1-[(6-amino-pyridin-3-ylmethyl)-carbamoyl]-2-(3,5-difluoro-phenyl)-ethyl]-amide], for which the IC50 was determined as 4.2 nM.

With `CC(C)N(C)CC(=O)N[C@@H](Cc1ccc(F)c(F)c1)C(=O)NCc1ccc(N)nc1` [Example 156, (S)—N-(6-Amino-pyridin-3-ylmethyl)-3-(3,4-difluoro-phenyl)-2-[2-(isopropyl-methyl-amino)-acetylamino]-propionamide], half-maximal inhibition (IC50) required 80.6 nM.

In turn, `Cc1ccc(-c2ccc(C(=O)N[C@@H](Cc3ccccc3Cl)C(=O)NCc3ccc(N)nc3)[nH]2)cc1` [Example 295, 5-p-Tolyl-1H-pyrrole-2-carboxylic acid [(S)-1-[(6-amino-pyridin-3-ylmethyl)-carbamoyl]-2-(2-chloro-phenyl)-ethyl]-amide] returned an IC50 of 192 nM.
